Assay results: patent US8551510B2, “Bed bug control and repellency” (Bedoukian Research, Inc., priority 2009, dated 2013)
Where two headings read alike, the source gives them in different places.

Tested on: bed bugs
Assay: Choice test with unconcealed bed bugs on filter paper discs, test compound in acetone vs. acetone only (percent repellency)
Format: in vivo
Settings: for percent repellency at 2 hour: 2 hour post-treatment (Table 2)
Method: This test was undertaken employing unconcealed bugs. Two semicircular discs of filter paper, 9 cm in radius treated with 1 ml of solution to wet the entire surface, one treated with an acetone solution of the test compound and one only acetone treated were placed on the lid of a Petri dish. Five replicates of ten (10) bed bugs were release into the center of the lids of the Petri dish with a choice of the test compound treated or only acetone treated substrate. The distribution of bed bugs was recorded at ½, […], 2, 6 and 24 hours post-treatment. Paired t-tests were conducted for each treatment to ascertain whether or not there was a statistically significant difference in the number of bed bugs on the treated vs. untreated discs.

[1] = 0.5 h, read-out: percent repellency at 0.5 hr
[2] = 1 h, read-out: percent repellency at 1 hr
[3] = 6 h, read-out: percent repellency at 6 hr
[4] = 24 h, read-out: percent repellency at 24 hr
[5] = read-out: percent repellency, Average
[6] = chemical at 0.5% in acetone on filter paper, 0.5 hr post-treatment, read-out: percent repellency at 0.5 hr
[7] = chemical at 0.5% in acetone on filter paper, 1 hr post-treatment, read-out: percent repellency at 1 hr
[8] = chemical at 0.5% in acetone on filter paper, 6 hr post-treatment, read-out: percent repellency at 6 hr
[9] = chemical at 0.5% in acetone on filter paper, 24 hr post-treatment, read-out: percent repellency at 24 hr
[10] = chemical at 0.5%, average of 0.5, 1, 6 and 24 hr, read-out: percent repellency, Average
[11] = chemical at 0.2% in acetone on filter paper, 0.5 hr post-treatment, read-out: percent repellency at 0.5 hr
[12] = chemical at 0.2% in acetone on filter paper, 1 hr post-treatment, read-out: percent repellency at 1 hr
[13] = chemical at 0.2% in acetone on filter paper, 6 hr post-treatment, read-out: percent repellency at 6 hr
[14] = chemical at 0.2% in acetone on filter paper, 24 hr post-treatment, read-out: percent repellency at 24 hr
[15] = chemical at 0.2%, average of 0.5, 1, 6 and 24 hr, read-out: percent repellency, Average

Structure (SMILES) | pest or weed control at 0.5 % [6] [%] | pest or weed control at 0.5 % [7] [%] | pest or weed control at 0.5 % [8] [%] | pest or weed control at 0.5 % [9] [%] | pest or weed control at 0.5 % [10] [%] | also measured
CC(=O)C=CC1C(C)=CCCC1(C)C (stereo not drawn) [Alpha Ionone, 4-(2,6,6-trimethyl-2-cyclohexenyl)-3-buten-2-one] | – | – | – | – | – | pest or weed control at 0.5 % [1]: 100%; pest or weed control at 0.5 % [2]: 100%; pest or weed control at 0.5 % [3]: 100%; pest or weed control at 0.5 % [4]: 84%; pest or weed control at 0.5 % [5]: 96%
CCCCCC1C(=O)CCC1CC(=O)OCC=C(C)C (stereo not drawn) [Prenyl dihydrojasmonate, 3-methylbut-2-enyl 2-(3-oxo-2-pentylcyclopentyl)acetate] | – | – | – | – | – | percent repellency at 2 hour (chemical at 1.0%): 82%
CCCCCC1CC(=O)C=C(C)C1C(=O)OCC (stereo not drawn) [ethyl 2-methyl-4-oxo-6-pentylcyclohec-2-enecarboxylate] | – | – | – | – | – | percent repellency at 2 hour (chemical at 0.2%): 62%
CCC(=O)/C(C)=C/C1C(C)CC=CC1(C)C (stereo not drawn) [Dimethylionone, (E)-2-methyl-1-(2,2,6-trimethyl-1-cyclohex-3-enyl)pent-1-en-3-one] | 90 | 96 | 96 | 92 | 93.5 | –
CC(C)=CCCC(C)=CCC1CCCC1=O (stereo not drawn) [2-Geranylcyclopentanone (Apritone), 2-(3,7-dimethylocta-2,6-dienyl)cyclopentan-1-one] | 100 | 100 | 100 | 100 | 100 | –
CC(C)CCCC(C)CCC1CCCC1=O (stereo not drawn) [Tetrahydroapritone] | – | – | – | – | – | percent repellency at 2 hour (chemical at 0.2%): 82%
O=C1CCC/C=C\CCCCCCCCCC1 [Cyclohexadec-5-ene-1-one, (5Z) cyclohexadec-5-ene-1-one] | – | – | – | – | – | pest or weed control at 0.1 % (chemical at 0.1% in acetone on filter paper, 0.5 hr post-treatment, read-out: percent repellency at 0.5 hr): 94%; pest or weed control at 0.1 % (chemical at 0.1% in acetone on filter paper, 1 hr post-treatment, read-out: percent repellency at 1 hr): 94%; pest or weed control at 0.1 % (chemical at 0.1% in acetone on filter paper, 6 hr post-treatment, read-out: percent repellency at 6 hr): 100%; pest or weed control at 0.1 % (chemical at 0.1% in acetone on filter paper, 24 hr post-treatment, read-out: percent repellency at 24 hr): 100%; pest or weed control at 0.1 % (chemical at 0.1%, average of 0.5, 1, 6 and 24 hr, read-out: percent repellency, Average): 97%
CCCCCCCCCCCC(C)=O [Methyl undecyl ketone, 2-tridecanone] | 100 | 100 | 100 | 100 | 100 | –
CC1=CCCC(C)(C)C1/C=C/C(=O)CC(C)C (stereo not drawn) [Isobutylionone, (E)-5-Methyl-1-(2,6,6-trimethyl-1-cyclohex-2-enyl) hex-1-en-3-one] | 100 | 98 | 94 | 94 | 96.5 | –
CC(=O)C(C)=CC1C(C)=CCCC1(C)C (stereo not drawn) [Alpha Isomethylionone, 3-methyl-4-(2,6,6-trimethyl-2-cyclohexen-1-yl)-3-buten-2-one] | 100 | 100 | 100 | 84 | 96 | –
CCCCCC1C(=O)CCC1CC(=O)OCC (stereo not drawn) [Ethyl dihydrojasmonate, ethyl 2-(3-oxo-2-pentylcyclopentyl)acetate] | – | – | – | – | – | percent repellency at 2 hour (chemical at 0.2%): 90%
C=C(C)C1CCC2=CC(=O)CC(C)C2(C)C1 (stereo not drawn) [Nootkatone, 4,4a-dimethyl-6-prop-1-en-2-yl-3,4,5,6,7,8-hexahydronaphthalen-2-one] | 100 | 100 | 100 | 100 | 100 | percent repellency at 2 hour (chemical at 0.1%): 60%
CCCCCC1C(=O)CCC1CC(=O)OC (stereo not drawn) [Methyl dihydrojasmonate, methyl 2-(3-oxo-2-pentylcyclopentyl)acetate] | – | – | – | – | – | pest or weed control at 0.2 % [11]: 86%; pest or weed control at 0.2 % [12]: 96%; pest or weed control at 0.2 % [13]: 94%; pest or weed control at 0.2 % [14]: 92%; percent repellency at 2 hour (chemical at 0.2%): 98%; pest or weed control at 0.2 % [15]: 92%
CCCCOC(=O)CCC(C)=O [Butyl levulinate, reference compound] | – | – | – | – | – | pest or weed control at 0.2 % [11]: 64%; pest or weed control at 0.2 % [12]: 68%; pest or weed control at 0.2 % [13]: 62%; pest or weed control at 0.2 % [14]: 60%; pest or weed control at 0.2 % [15]: 64%
CCC(C)=CCCC(C)=CCC1CCCC1=O (stereo not drawn) [Methyl Apritone, 2-(3,7-dimethyl-2,6-nonadienyl)cyclopentanone] | – | – | – | – | – | pest or weed control at 0.2 % [11]: 100%; pest or weed control at 0.2 % [12]: 100%; pest or weed control at 0.2 % [13]: 100%; pest or weed control at 0.2 % [14]: 100%; percent repellency at 2 hour (chemical at 0.2%): 90%; pest or weed control at 0.2 % [15]: 100%
CCCCCC1C(=O)CCC1CC(=O)OCCC (stereo not drawn) [Propyl dihydrojasmonate, propyl 2-(3-oxo-2-pentylcyclopentyl)acetate] | – | – | – | – | – | percent repellency at 2 hour (chemical at 0.2%): 78%
CC(=O)CCC=C(C)CCC=C(C)C [Geranylacetone, 6,10-dimethyl-5,9-undecadien-2-one] | 100 | 100 | 100 | 100 | 100 | –
CCCCCC=CCC1CCCC1=O (stereo not drawn) [2-Octenylcyclopentanone, 2-(2-octen-1-yl)cyclopentanone] | 100 | 100 | 100 | 100 | 100 | –
CC1=CCC(C(C)CC2CCCC2=O)CC1 (stereo not drawn) [Nectaryl ™, 2-(2-(4-methyl-3-cyclohexen-1-yl)propyl) cyclopentanone] | 87.8 | 95.9 | 100 | 100 | 95.9 | –
CCCCCCCCCC(C)=O [Methyl nonyl ketone, methyl nonyl ketone] | – | – | – | – | – | pest or weed control at 0.5 % [1]: 85.7%; pest or weed control at 0.5 % [2]: 84%; pest or weed control at 0.5 % [3]: 80%; pest or weed control at 0.5 % [4]: 74%; pest or weed control at 0.5 % [5]: 80.9%
CCCCCCCCC(=O)C(C)=O [2,3-Undecanedione, reference compound] | 90 | 60 | 60 | 90 | 75 | –
O=C1CCCC1C1CCCC1 (stereo not drawn) [2-Cyclopentylcyclopentanone, 2-cyclopentylcyclopentanone] | 90 | 90 | 76 | 70 | 81 | –
CCCCCCCCCCC(C)=O [Methyl decyl ketone, 2-dodecanone] | 100 | 100 | 100 | 100 | 100 | –
CCC(C)CCCC(C)CCC1CCCC1=O (stereo not drawn) [Tetrahydro methyl apritone, 2-(3,7-dimethynonyl)cyclopentanone] | – | – | – | – | – | percent repellency at 2 hour (chemical at 0.2%): 88%
CC/C=C\CC1C(=O)CCC1CC(=O)OC (stereo not drawn) [Methyl jasmonate, (Z)-methyl 2-(3-oxo-2-(pent-2-enyl)cyclopentyl)acetate] | – | – | – | – | – | pest or weed control at 0.2 % [11]: 80%; pest or weed control at 0.2 % [12]: 90%; pest or weed control at 0.2 % [13]: 90%; pest or weed control at 0.2 % [14]: 88%; pest or weed control at 0.2 % [15]: 87%
CC1(C)C2CCC3(C2)C1C(=O)CCC3(C)C (stereo not drawn) [Isolongifolanone, 2,2,7,7-tetramethyltricyclo[6.2.1.01,6]undecan-5-one] | 90 | 88 | 98 | 98 | 93 | –
CCCCCCC=CC(C)=O [3-Decen-2-one] | 82 | 84 | 78 | 76 | 80 | –
